# Experimental data from publication PMC8838521, “Antimicrobial, Cytotoxic and Mutagenic Activity of Gemini QAS Derivatives of 1,4:3,6-Dianhydro-L-iditol” (Molecules, 2022).
# Structures can show the parent of a compound that is named as a salt. Where two headings read alike, the source gives them in different places.
# Legend:
# [1] = tested on: Candida albicans ATCC 10231; assay: Antimicrobial activity, microdilution MIC, C. albicans; type: cell-based; details: for MIC: Candida albicans, ATCC10231, 24 h
# Protocol: (§1) The antimicrobial potential of the tested agents was evaluated against two reference strains of bacteria: Staphylococcus aureus ATCC 25923 and Escherichia coli K12, two reference strains of pathogenic yeasts, Candida albicans ATCC10231 and Candida glabrata DSMZ11226, as well as 20 strains of clinical isolates of S. aureus collected from patients with skin and soft tissue infections (n = 8) and strains derived from subclinical bovine mastitis milk samples (n = 12). Four of these strains, two isolated from human infections and two isolated from bovine mastitis, were classified as MRSA (Methicillin-resistant Staphylococcus aureus). All of them were mecA positive and their methicillin resistance was confirmed with the disc diffusion assay. The remaining 16 strains were MSSA (Methicillin-sensitive Staphylococcus aureus). The assays were performed using a serial, two-fold dilution method in 96-well microtiter plates under conditions recommended by the Clinical and Laboratory Standards Institute (CLSI, Pittsburgh, PA, USA). The aim of this procedure was the determination of the MIC parameter (Minimum Inhibitory Concentration)—the minimum concentration of a tested agent capable to inhibit the growth of a specified strain of microorganism. The agents were solubilized in deionized, sterile water to a final concentration of […]. Subsequently, solutions were mixed (1:1 (v/v)) with 2 × concentrated liquid medium, Mueller-Hinton Broth 2—cation adjusted (MHB2) for evaluation of antibacterial activity and RPMI in the case of evaluation of the antifungal activity. […] Subsequently, the solutions were mixed with MHB2 or RPMI medium to get the final concentration of 8.192 mg/mL (8192 µg/mL). In the next step, the serial, two-fold dilutions of the tested agents (over the range of concentrations from 8192 to 8 µg/mL for reference strains of bacteria and yeasts and from 512 to 1.0 µg/mL for clinical isolates of S. aureus) were prepared in 96-well microtitration plates in the final volume of 100 μL of the appropriate medium.
# (§2) The pure cultures of yeast strains were grown on the Sabouraud Dextrose Agar (SDA) for 18–24 h at 37 °C. Suspensions of the microorganisms were prepared by taking one loop of pure culture into sterile water and adjusting optical density to 0.1 at 660 nm and further 50-fold dilution in RPMI 1640 medium resulting in cells concentration of approximate 2 × 10^4 CFU/mL. One hundred μL of that suspension was inoculated to the wells of the microtitration plate containing appropriate dilutions of the agents. The positive growth control of each strain (both bacteria and yeasts) was performed in the wells without the tested substances. The negative control containing only the media was included in each assay. Microtiter plates were incubated at 37 °C for 24 h. Following the incubation period, determination of the MIC values of the tested agents was carried out by measuring the absorbance at 531 nm using a Victor^3 microplate reader (Perkin Elmer, Inc., Waltham, MA, USA). The lowest concentration of the agent causing inhibition of growth equal to or higher than 90% (MIC90) of growth control was taken as the MIC value. Each test was repeated three times.
# [2] = tested on: Candida glabrata DSMZ 11226; assay: Antimicrobial activity, microdilution MIC, C. glabrata; type: cell-based; details: for MIC: Nakaseomyces glabratus, DSMZ11226, 24 h
# Protocol: as §1, §2
# [3] = tested on: Staphylococcus aureus ATCC 25923; assay: Antimicrobial activity, microdilution MIC, S. aureus reference strain; type: cell-based; details: for MIC: Staphylococcus aureus, ATCC25923, 24 h
# Protocol: as §1
# (§3) The pure bacterial cultures of (both the reference and clinical strains) were grown on the Mueller-Hinton Agar (MHA) for 18–24 h at 37 °C. A small amount of the biomass of the culture of each strain of microorganisms was suspended in the sterile PBS (phosphate buffered saline, pH 7.4 at 25 °C, purchased from Sigma) solution to get an optical density OD600 = 0.13 (equal to the cells concentration approximately 1 × 10^8 CFU/mL). The obtained suspensions of the cells were next diluted 1:100 (v/v) in the MHB2 medium. One hundred µL of the cells’ suspension was finally loaded into the wells of plates prepared in advance, which contained 100 µL of two-fold dilutions of the tested agents (the final concentration of the bacterial cells in all wells was approximately 5 × 10^5 CFU/mL).
# as §2, with “times. […]” for “times.”
# Escherichia coli K12 = assay: Antimicrobial activity, microdilution MIC, E. coli; type: cell-based; details: for MIC: Escherichia coli, K12, 24 h
# Protocol: as §1, §3
# as §2, with “times. […]” for “times.”
# [4] = tested on: human keratinocytes (HaCaT cell line); assay: Cytotoxicity, MTT assay; type: cell-based; details: Homo sapiens, HaCaT, read-out: HaCaT IC50
# Protocol: To assess the cytotoxicity of QAS (IC50), the MTT assay on 96-well polystyrene plates was performed for human keratinocytes (HaCaT, Elabscience Biotechnology Inc., Houston, Texas, USA). The assay utilizes colorimetric determination of the cell metabolic activity and the color intensity reflects the number of live cells that can be measured spectrophotometrically. The cell line was cultured in a Dulbecco’s modified Eagle Medium (Invitrogen) supplemented with 10% fetal bovine serum (Sigma Aldrich) (v/v), 100 units/mL of penicillin, 100 μg/mL of streptomycin, and 2 mM L-glutamine and was stored at 37 °C in a humidified 5% CO2 incubator. Briefly, a day after plating of 500 cells per well, a series of concentrations (0.5–200 μg/mL) of the test compounds was applied. DMSO was added to the control cells at a final concentration of 1.0% (v/v), which was related to the maximal concentration of the solvent compounds used in the experiment. After 24 h of incubation with the QAS at 37 °C (humidified 5% CO2 incubator), a medium containing 1 mg/mL of MTT (3-(4,5-dimethylthiazol-2-yl)-2,5-diphenyltetrazolium bromide) was added to the wells up to a final concentration of 0.5 mg/mL. Subsequently, the plates were incubated at 37 °C for 4 h. Then, the medium was removed by suction, and the formazan product was solubilized with DMSO. The background absorbance at 630 nm was subtracted from that at 570 nm for each well (Epoch, BioTek Instruments, Winooski, VT, USA). Six replicates were conducted for each concentration. All experiments were repeated at least twice and the resulting IC50 values were calculated with GraFit 7 software (v. 7.0, Erithacus, Berkley, CA, USA).
# [5] = Solubility observed during assays; type: physicochemical; details: observed during antimicrobial assays; DMSO used for solubilisation
# [6] = tested on: Salmonella typhimurium TA98 strain; details: TA98, no metabolic activation
# Protocol: A Salmonella mutagenicity test was performed with Salmonella typhimurium TA98 strain (Xenometrics AG, Allschwil, Switzerland) without metabolic activation, following the procedure by Mortelmans and Zeiger [52], with modifications reported Golunski et al. [53] […] Subsequently, the mixture was centrifuged, bacterial pellet washed with 0.75% NaCl and resuspended in 300 µL of 0.75% NaCl solution containing 0.1 µmol each of histidine and biotin, and it was then spread on a glucose minimal (GM) plate. […] All experiments were performed in triplicate. The anticancer drug doxorubicin at 90 ng/plate with known mutagenic effect towards S. typhimurium TA98 was used as a positive control.
Structure (SMILES),"MIC C. glabrata DSMZ 11226 ([2]; MIC90, 24 h, RPMI)","MIC S. aureus ATCC 25923 ([3]; MIC90, 24 h, MHB2)","MIC E. coli K12 (Escherichia coli K12; MIC90, 24 h, MHB2)",Number of Revertants ([6]; concentration 4 µg/plate),Number of Revertants ([6]; concentration 20 µg/plate),Number of Revertants ([6]; concentration 100 µg/plate),Number of Revertants ([6]; concentration 500 µg/plate),Number of Revertants ([6]; concentration 2000 µg/plate),further results
"CCCCCC[N+](C)(C)C1COC2C1OCC2[N+](C)(C)CCCCCC [QAS 8, N,N’-(1,4:3,6-Dianhydro-2,5-dideoxy-L-iditol-2,5-diyl)-bis(N,N-dimethyl-N-hexylammonium) Ditrifluoromethanesulfonate]",2048 µg/mL,2048 µg/mL,>4096 µg/mL,14.7 ± 5.1,15.7 ± 1.5,11.0 ± 7.5,12.3 ± 3.5,12.7 ± 3.2,"MIC ([1]; read-out: MIC C. albicans ATCC 10231, MIC90, 24 h, RPMI): > 4000 µg/mL; MIC ([2]; read-out: MIC C. glabrata DSMZ 11226, MIC90, 24 h, RPMI): > 4000 µg/mL; MIC ([3]; read-out: MIC S. aureus ATCC 25923, MIC90, 24 h, MHB2): > 4000 µg/mL; MIC (Escherichia coli K12; read-out: MIC E. coli K12, MIC90, 24 h, MHB2): > 4000 µg/mL; IC50 ([4]; 24 h): > 100 µg/mL; Solubility in water [5]: lower solubility in water"
"NC(=O)c1ccc[n+](C2COC3C2OCC3[n+]2cccc(C(N)=O)c2)c1 (as salt: methanesulfonate) [QAS 5, N,N’-(1,4:3,6-Dianhydro-2,5-dideoxy-L-iditol-2,5-diyl)-bis[(3-carboxamide)pyridinium] Ditrifluoromethanesulfonate]",,,,,,,,,melting point: 63.5 to 65.2 °C
"NC(=O)c1ccc[n+](C2COC3C2OCC3[n+]2cccc(C(N)=O)c2)c1 [QAS 5, N,N’-(1,4:3,6-Dianhydro-2,5-dideoxy-L-iditol-2,5-diyl)-bis[(3-carboxamide)pyridinium] Ditrifluoromethanesulfonate]",>4096 µg/mL,>4096 µg/mL,>4096 µg/mL,14.3 ± 5.5,8.0 ± 3.5,12.0 ± 2.0,12.7 ± 2.5,11.0 ± 1.7,"MIC ([1]; MIC90, 24 h, RPMI, read-out: MIC C. albicans ATCC 10231): > 4000 µg/mL; MIC C. albicans ATCC 10231 ([1]; MIC90, 24 h, RPMI): >4096 µg/mL; MIC ([2]; MIC90, 24 h, RPMI, read-out: MIC C. glabrata DSMZ 11226): > 4000 µg/mL; MIC ([3]; MIC90, 24 h, MHB2, read-out: MIC S. aureus ATCC 25923): > 4000 µg/mL; MIC (Escherichia coli K12; MIC90, 24 h, MHB2, read-out: MIC E. coli K12): > 4000 µg/mL; IC50 ([4]; MTT, 24 h incubation): > 100 µg/mL"
